# Laboratory results: publication PMC9395488, “First-in-human study of IM156, a novel potent biguanide oxidative phosphorylation (OXPHOS) inhibitor, in patients with advanced solid tumors” (Investigational New Drugs, 2022)
# System: patients with advanced solid tumors
# Assay: First-in-human phase 1 dose-escalation study: safety, DLTs, adverse events
# Format: in vivo
# Description: This multicenter first-in-human dose-escalation phase 1 study (clinicaltrials.gov identifier: NCT03272256) was designed to determine the MTD or RP2D and to evaluate the safety and tolerability of IM156. Secondary endpoints included PK characteristics, efficacy assessment (objective response rate [ORR], disease control rate [DCR], duration of response [DoR] and progression-free survival [PFS]). Furthermore, exploratory objectives included identification and profiling of IM156 metabolites, evaluations of exploratory PD markers of IM156, and evaluations of any potential relationship between putative biomarkers and safety/efficacy parameters of IM156. The study was conducted in accordance with Good Clinical Practice, the International Council for Harmonisation, and guidelines governing clinical study conduct and the ethical principles originating from the Declaration of Helsinki. The study was approved by each Institutional Review Board and patients provided written informed consent. Patients were enrolled at three sites in South Korea.
# The initial dose and schedule of IM156 was chosen based on animal toxicology studies. […] IM156 was administered in the fasted state, with no food for at least 2 h before and 1 h after dosing.
# Three DLT-evaluable patients were enrolled at each dose level. If there were no DLTs or other prohibitive adverse events (AEs), the Safety Committee was allowed to recommend escalation to the next highest dose level. If 1 DLT occurred in the first 3 DLT-evaluable patients, enrollment in that cohort was expanded to an additional 3 DLT-evaluable patients; if ≥ 2 DLTs were reported in a cohort, that dose was considered above the MTD.
# Safety was assessed through vital signs, weight, laboratory assessments, physical examinations, electrocardiogram, and reporting of AEs as graded by the National Cancer Institute’s Common Terminology Criteria for Adverse Events v4.03 (NCI-CTCAE).
# DLTs were defined as the following AEs if they were attributed as related to IM156: asymptomatic grade 4 neutropenia lasting for ≥ 5 days; febrile neutropenia, regardless of grade; grade 4 thrombocytopenia or grade 3 thrombocytopenia with bleeding; any grade ≥ 3 non-hematologic AE (except grade 3 hypertension and grade 3 nausea, vomiting or diarrhea for which proper measures for prevention and treatment were not implemented, and alopecia); blood lactate levels > 5 mmol; grade ≥ 2 AE prohibiting dosing of IM156 for ≥ 21 continuous days except for alterations in serum calcium or phosphorus levels. The safety analysis includes all patients who received at least one dose of study drug.
# The safety population was defined as all patients who received at least one dose of IM156. The PK population was not defined in the protocol but included all patients with sufficient PK data to perform adequate PK modeling. The efficacy population included all patients who underwent at least one tumor imaging assessment while receiving IM156. Safety was assessed using descriptive statistics (e.g., DLTs, AEs, laboratory tests, physical examination, 12-lead ECG). The incidence and number of events were reported for the DLTs observed in Cycle 1 per dose group. […] Adverse events and TRAEs were standardized with the System Organ Class and the Preferred Term using the Medical Dictionary for Regulatory Activities v23.0. In addition, TEAEs, serious adverse events (SAEs), TEAE severity, and TEAEs leading to withdrawal were presented by dose group. Efficacy data were to be presented by Waterfall and Swim Lane plots. Time to event endpoints (e.g., DoR, PFS) were determined using Kaplan–Meier estimations with the median value for each endpoint summarized.
compound,measurement,setting,value
NC(=Nc1ccc(OC(F)(F)F)cc1)N=C(N)N1CCCC1 [IM156],TEAE Pain in extremity grade 4,DL6 800 mg orally daily (n=3),0
same,TEAE Pruritus grade 1,DL6 800 mg orally daily (n=3),0
same,TEAE Pruritus grade 2,DL6 800 mg orally daily (n=3),0
same,TEAE Pruritus grade 3,DL6 800 mg orally daily (n=3),0
same,TEAE Pruritus grade 4,DL6 800 mg orally daily (n=3),0
same,TEAE Psychiatric disorders grade 1,DL6 800 mg orally daily (n=3),1
same,TEAE Psychiatric disorders grade 2,DL6 800 mg orally daily (n=3),0
same,TEAE Psychiatric disorders grade 3,DL6 800 mg orally daily (n=3),0
same,TEAE Psychiatric disorders grade 4,DL6 800 mg orally daily (n=3),0
same,TEAE Purpura grade 1,DL6 800 mg orally daily (n=3),0
same,TEAE Purpura grade 2,DL6 800 mg orally daily (n=3),0
same,TEAE Purpura grade 3,DL6 800 mg orally daily (n=3),0
same,TEAE Purpura grade 4,DL6 800 mg orally daily (n=3),0
same,TEAE Urinary retention grade 1,DL6 800 mg orally daily (n=3),0
same,TEAE Urinary retention grade 2,DL6 800 mg orally daily (n=3),0
same,TEAE Urinary retention grade 3,DL6 800 mg orally daily (n=3),0
same,TEAE Urinary retention grade 4,DL6 800 mg orally daily (n=3),0
same,TEAE Urinary tract disorder grade 1,DL6 800 mg orally daily (n=3),0
same,TEAE Urinary tract disorder grade 2,DL6 800 mg orally daily (n=3),0
same,TEAE Urinary tract disorder grade 3,DL6 800 mg orally daily (n=3),0
same,TEAE Urinary tract disorder grade 4,DL6 800 mg orally daily (n=3),0
same,"TEAE Abdominal pain, grade 2",DL7 1200 mg QD (n=4),2
same,"TEAE Akathisia, grade 2",DL7 1200 mg QD (n=4),1
same,"TEAE Alanine aminotransferase increased, grade 1",DL7 1200 mg QD (n=4),1
same,"TEAE Aspartate aminotransferase increased, grade 1",DL7 1200 mg QD (n=4),1
same,"TEAE Blood creatinine increased, grade 1",DL7 1200 mg QD (n=4),2
same,"TEAE Blood lactic acid increased, grade 1",DL7 1200 mg QD (n=4),1
same,"TEAE Constipation, grade 1",DL7 1200 mg QD (n=4),1
same,"TEAE Decreased appetite, grade 2",DL7 1200 mg QD (n=4),1
same,"TEAE Diarrhoea, grade 1",DL7 1200 mg QD (n=4),2
same,"TEAE Dysesthesia, grade 1",DL7 1200 mg QD (n=4),1
same,"TEAE Fatigue, grade 2",DL7 1200 mg QD (n=4),3
same,"TEAE Gastritis, grade 1",DL7 1200 mg QD (n=4),1
same,"TEAE Hemoptysis, grade 2",DL7 1200 mg QD (n=4),1
same,"TEAE Hyperkalaemia, grade 3",DL7 1200 mg QD (n=4),1
same,"TEAE Ileus, grade 2",DL7 1200 mg QD (n=4),1
same,"TEAE Influenza like illness, grade 1",DL7 1200 mg QD (n=4),1
same,"TEAE Lethargy, grade 2",DL7 1200 mg QD (n=4),1
same,"TEAE Nausea, grade 2",DL7 1200 mg QD (n=4),2
same,"TEAE Nausea, grade 3",DL7 1200 mg QD (n=4),2
same,"TEAE Oedema peripheral, grade 2",DL7 1200 mg QD (n=4),1
same,"TEAE Pain, grade 2",DL7 1200 mg QD (n=4),1
same,"TEAE Platelet count decreased, grade 1",DL7 1200 mg QD (n=4),1
same,"TEAE Pyrexia, grade 1",DL7 1200 mg QD (n=4),2
same,"TEAE Pyrexia, grade 2",DL7 1200 mg QD (n=4),1
same,"TEAE Vomiting, grade 1",DL7 1200 mg QD (n=4),3
same,"TRAE Abdominal Pain, > G3 (patients)","DL7 1,200 mg QD, N = 4",0
same,"TRAE Abdominal Pain, All grades (patients)","DL7 1,200 mg QD, N = 4",1
same,"TRAE Blood Lactic Acid increased, > G3 (patients)","DL7 1,200 mg QD, N = 4",0
same,"TRAE Blood Lactic Acid increased, All grades (patients)","DL7 1,200 mg QD, N = 4",1
same,"TRAE Constipation, > G3 (patients)","DL7 1,200 mg QD, N = 4",0
same,"TRAE Constipation, All grades (patients)","DL7 1,200 mg QD, N = 4",1
same,"TRAE Decreased appetite, > G3 (patients)","DL7 1,200 mg QD, N = 4",0
same,"TRAE Decreased appetite, All grades (patients)","DL7 1,200 mg QD, N = 4",1
same,"TRAE Diarrhoea, > G3 (patients)","DL7 1,200 mg QD, N = 4",0
same,"TRAE Diarrhoea, All grades (patients)","DL7 1,200 mg QD, N = 4",1
same,"TRAE Fatigue, > G3 (patients)","DL7 1,200 mg QD, N = 4",0
same,"TRAE Fatigue, All grades (patients)","DL7 1,200 mg QD, N = 4",3
same,"TRAE Insomnia, > G3 (patients)","DL7 1,200 mg QD, N = 4",0
same,"TRAE Insomnia, All grades (patients)","DL7 1,200 mg QD, N = 4",0
same,"TRAE Nausea, > G3 (patients)","DL7 1,200 mg QD, N = 4",2
same,"TRAE Nausea, All grades (patients)","DL7 1,200 mg QD, N = 4",4
same,"TRAE Vomiting, > G3 (patients)","DL7 1,200 mg QD, N = 4",0
same,"TRAE Vomiting, All grades (patients)","DL7 1,200 mg QD, N = 4",3
same,TEAE Adrenal insufficiency grade 1,DL7 1200 mg orally daily (n=4),0
same,TEAE Adrenal insufficiency grade 2,DL7 1200 mg orally daily (n=4),0
same,TEAE Adrenal insufficiency grade 3,DL7 1200 mg orally daily (n=4),0
same,TEAE Adrenal insufficiency grade 4,DL7 1200 mg orally daily (n=4),0
same,TEAE Anaemia grade 1,DL7 1200 mg orally daily (n=4),0
same,TEAE Anaemia grade 2,DL7 1200 mg orally daily (n=4),1
same,TEAE Anaemia grade 3,DL7 1200 mg orally daily (n=4),1
same,TEAE Anaemia grade 4,DL7 1200 mg orally daily (n=4),0
same,TEAE Appendicitis perforated grade 1,DL7 1200 mg orally daily (n=4),0
same,TEAE Appendicitis perforated grade 2,DL7 1200 mg orally daily (n=4),0
same,TEAE Appendicitis perforated grade 3,DL7 1200 mg orally daily (n=4),1
same,TEAE Appendicitis perforated grade 4,DL7 1200 mg orally daily (n=4),0
same,TEAE Back pain grade 1,DL7 1200 mg orally daily (n=4),0
same,TEAE Back pain grade 2,DL7 1200 mg orally daily (n=4),0
same,TEAE Back pain grade 3,DL7 1200 mg orally daily (n=4),0
same,TEAE Back pain grade 4,DL7 1200 mg orally daily (n=4),0
same,TEAE Cystitis grade 1,DL7 1200 mg orally daily (n=4),0
same,TEAE Cystitis grade 2,DL7 1200 mg orally daily (n=4),0
same,TEAE Cystitis grade 3,DL7 1200 mg orally daily (n=4),0
same,TEAE Cystitis grade 4,DL7 1200 mg orally daily (n=4),0
same,TEAE Dry skin grade 1,DL7 1200 mg orally daily (n=4),0
same,TEAE Dry skin grade 2,DL7 1200 mg orally daily (n=4),1
same,TEAE Dry skin grade 3,DL7 1200 mg orally daily (n=4),0
same,TEAE Dry skin grade 4,DL7 1200 mg orally daily (n=4),0
same,TEAE Flank pain grade 1,DL7 1200 mg orally daily (n=4),0
same,TEAE Flank pain grade 2,DL7 1200 mg orally daily (n=4),0
same,TEAE Flank pain grade 3,DL7 1200 mg orally daily (n=4),0
same,TEAE Flank pain grade 4,DL7 1200 mg orally daily (n=4),0
same,TEAE Hypertension grade 1,DL7 1200 mg orally daily (n=4),0
same,TEAE Hypertension grade 2,DL7 1200 mg orally daily (n=4),0
same,TEAE Hypertension grade 3,DL7 1200 mg orally daily (n=4),0
same,TEAE Hypertension grade 4,DL7 1200 mg orally daily (n=4),0
same,TEAE Hypotension grade 1,DL7 1200 mg orally daily (n=4),0
same,TEAE Hypotension grade 2,DL7 1200 mg orally daily (n=4),0
same,TEAE Hypotension grade 3,DL7 1200 mg orally daily (n=4),0
same,TEAE Hypotension grade 4,DL7 1200 mg orally daily (n=4),0
same,TEAE Insomnia grade 1,DL7 1200 mg orally daily (n=4),0
same,TEAE Insomnia grade 2,DL7 1200 mg orally daily (n=4),0
same,TEAE Insomnia grade 3,DL7 1200 mg orally daily (n=4),0
same,TEAE Insomnia grade 4,DL7 1200 mg orally daily (n=4),0
same,TEAE Pain in extremity grade 1,DL7 1200 mg orally daily (n=4),0
same,TEAE Pain in extremity grade 2,DL7 1200 mg orally daily (n=4),0
same,TEAE Pain in extremity grade 3,DL7 1200 mg orally daily (n=4),0
same,TEAE Pain in extremity grade 4,DL7 1200 mg orally daily (n=4),0
same,TEAE Pruritus grade 1,DL7 1200 mg orally daily (n=4),1
same,TEAE Pruritus grade 2,DL7 1200 mg orally daily (n=4),0
same,TEAE Pruritus grade 3,DL7 1200 mg orally daily (n=4),0
same,TEAE Pruritus grade 4,DL7 1200 mg orally daily (n=4),0
same,TEAE Psychiatric disorders grade 1,DL7 1200 mg orally daily (n=4),0
same,TEAE Psychiatric disorders grade 2,DL7 1200 mg orally daily (n=4),0
same,TEAE Psychiatric disorders grade 3,DL7 1200 mg orally daily (n=4),0
same,TEAE Psychiatric disorders grade 4,DL7 1200 mg orally daily (n=4),0
same,TEAE Purpura grade 1,DL7 1200 mg orally daily (n=4),1
